Laboratory results taken from patent US10757943B2, “Thidiazuron mixtures and uses thereof” (Valent BioSciences LLC, priority 2017, dated 2020).

Key:
Format in all cases: in vivo
[1] = tested on: Red Flame seedless grape vines; assay: Bud break and shoot length of field-grown Red Flame seedless grape vines (Example 2); conditions: for Broken Buds per plant (Average Buds Broken per Spur): 31 days after treatment; for % Broken Buds / Total Shoot Length: 48 days after treatment
Experimental: To assess the ability of mixtures of the invention to promote and synchronize bud break these mixtures were applied to field-grown Red Flame seedless grape vines and examined for bud break (initiation of growth) and subsequent shoot development. Thidiazuron, hydrogen cyanamide, 17-0-0 fertilizer, and mixtures thereof were each applied individually or sequentially (co-applied) to the separate spurs of Red Flame seedless grape vines. Plants were evaluated for bud break at 31 days after treatment, for percent bud break and total new shoot length at 48 days after treatment. Results of these evaluations can be seen below in Tables 4 and 5.

Concord grape vines [2] = assay: Bud break and shoot growth of potted dormant Concord grape vines in the greenhouse (Example 1); conditions: for % bud break (vines with at least one bud break): hydrogen cyanamide 10,000 ppm, 17-0-0 197,100 ppm, 15-0-0 239,060 ppm, ACC 1,000 ppm; for % bud break (vines with at least one bud break) / 50% Bud Break to Harvest / Initial to 50% Bud Break / 25% Bud Break (DAT) / 50% Bud Break (DAT): thidiazuron 300 ppm unless label states other; for Dry Weight (g)/25% Bud Break to Harvest (d): combined shoot dry weight at 49 DAT normalised by days from 25% bud break to harvest; for Dry Weight (g)/50% Bud Break to Harvest (d): combined shoot dry weight at 49 DAT normalised by days from 50% bud break to harvest; for Fresh Weight (g)/50% Bud Break to Harvest (d): combined shoot fresh weight at 49 DAT normalised by days from 50% bud break to harvest; for 50% Bud Break to Harvest: harvest at day 49; for Initial to 50% Bud Break: synchrony of bud break; for 25% Bud Break (DAT): time to 25% bud break; for 50% Bud Break (DAT): time to 50% bud break
Source text: An aqueous 50% hydrogen cyanamide solution (Sigma-Aldrich, St. Louis, Mo. USA) was used as the source of hydrogen cyanamide. The commercial product, Dormex® contains 50% hydrogen cyanamide (w/v) in water.
Erger® was used as the source of 15-0-0 fertilizer. (Erger is a registered trademark of Valagro S.P.A., Italy and is available from Helena Chemical Company, Collierville, Tenn., USA). Erger® contains 15% total nitrogen as 3.1% ammoniacal nitrogen, 5.8% nitrate nitrogen and 6.1% urea nitrogen and 3.3% calcium derived from ammonium nitrate, calcium nitrate and urea. As used herein, the term “15-0-0 fertilizer” refers to the Erger® formulation above and all formulations described in International PCT application publication WO/2001/037653A2 by Valagro S.P.A., Italy, which is incorporated, herein, in its entirety.
CAN-17 was used as the source of 17-0-0 fertilizer. CAN-17 contains 17% total nitrogen as 4.6% ammonium nitrogen and […] nitrate nitrogen and 1.3% urea nitrogen and 8.8% calcium derived from ammonium nitrate and calcium nitrate. CAN-17 is available from J.R. Simplot Company (Boise, Id., USA).
To assess the ability of mixtures of the invention to promote and synchronize bud break these mixtures were applied to Concord grape vines and examined for bud break (initiation of growth) and subsequent shoot development. Specifically, 1 year old dormant bare rooted Concord grape vines were planted in pots containing Pro-Mix® BX potting soil (Pro-Mix is a registered trademark of and available from Premier Horticulture Ltd.) and pruned to 5 nodes on a single shoot. Aqueous solutions of thidiazuron, hydrogen cyanamide, 15-0-0 fertilizer, 17-0-0 fertilizer and 1-aminocyclopropane-1-carboxylic acid (“ACC”), and mixtures thereof were each applied individually or sequentially or co-applied to the first-year wood of separate Concord grape vines. Plants were grown in the greenhouse for 49 days and evaluated for percent of vines showing bud break, or relief from dormancy, periodically between 7 days and the conclusion of the experiment. […] At 49 days after treatment (DAT), the plants were sacrificed and measured for total number of flower clusters, total new shoot length, longest new shoot, combined new shoot fresh weight and combined new shoot dry weight. New shoot growth is the growth arising from the dormant buds not including the woody growth that was planted and gave rise to the new growth.
Synergy is calculated by the Abbott method: %Cexp=A+B−(AB/100), where % Cexp is the expected efficacy and in which A and B are the speed of bud break or shoot length or shoot weight given by the single active ingredients. If the ratio between the experimentally observed efficacy of the mixture Cobs and the expected efficacy of the mixture is greater than 1, synergistic interactions are present in the mixture” (Gisi, Synergistic Interaction of Fungicides in Mixtures, The American Phytopathological Society, 86:11, 1273-1279,1996).

Concord grape vines [3] = assay: Bud break and harvest weight of endo-dormant two-year-old Concord grape vines in the greenhouse (Example 4); conditions: thidiazuron ppm and 17-0-0 % as in label, 15-0-0 65,880 ppm; for Fresh Shoot Weight (g)/Plant: new growth at close of study
Source text: Two-year-old Concord grape vines were purchased commercially. These vines had just lost their leaves and were shipped shortly after they were dug at the nursery. Thus, the vines had not fulfilled their chilling requirement and were considered endo-dormant. The vines were potted individually into one-gallon pots containing ProMix® BX immediately upon receipt and subsequently pruned back to the five proximal buds on the one-year old wood. Within two hours of pruning, treatment solutions were applied using a foam paint brush to the remaining one-year old wood, including the cut end from pruning. Two treatments, water and hydrogen cyanimide, which acted as negative and positive controls, respectively, were included in all studies.
Treatment solutions were made fresh in water and contained 1% (v/v) non-ionic surfactant. In all cases, two treatment solutions were applied to the plants. Where a single component was used for a treatment, the first application solution was water containing surfactant; in the cases where combination treatments were made to the same plant, the first treatment solution was allowed to dry prior to applying the second.
The treated plants were kept in a conventional greenhouse under supplemental lighting. Greenhouse conditions were 65:60° F. Day:Night temperature with a 16:8 hour photoperiod. Relief from dormancy was assessed every two days during the course of the study. Dormancy was considered relieved upon the emergence of a green bud. Both the number of ‘broken buds’ per plant and the date of relief of plants from dormancy were assessed. At the close of the study, new growth was removed from each of the treated plants and weighed.

[4] = hydrogen cyanamide 10,000 ppm, thidiazuron 300 ppm, 17-0-0 197,100 ppm
[5] = 49 days post treatment, thidiazuron ppm as in label, other concentrations as in Table 1, listed as Thidiazuron (300)
[6] = 49 days post treatment, thidiazuron ppm as in label, other concentrations as in Table 1, listed as Thidiazuron (1000)
[7] = other concentrations as in Table 1, listed as Thidiazuron (1000)
[8] = other concentrations as in Table 1
[9] = other concentrations as in Table 1, listed as 1,000 ppm thidiazuron

SMILES: O=C(Nc1ccccc1)Nc1cnns1 [Thidiazuron, 1-Phenyl-3-(1,2,3-thiadiazol-5-yl)urea]
- Broken Buds per plant (Average Buds Broken per Spur) [1, 4]: 0.1
- Broken Buds per plant (Average Buds Broken per Spur) ([1]; thidiazuron 1,000 ppm): 0.4
- % Broken Buds [1, 4]: 80%
- Total Shoot Length [1, 4]: 15.38
- % Broken Buds ([1]; thidiazuron 1,000 ppm): 78.1%
- Total Shoot Length ([1]; thidiazuron 1,000 ppm): 24.3
- % bud break (vines with at least one bud break) (Concord grape vines [2]; 7 DAT): 0%
- % bud break (vines with at least one bud break) (Concord grape vines [2]; 10 DAT): 0.0%
- % bud break (vines with at least one bud break) (Concord grape vines [2]; 10 DAT, listed as Thidiazuron (1,000)): 44.4%
- % bud break (vines with at least one bud break) (Concord grape vines [2]; 13 DAT): 0.0%
- % bud break (vines with at least one bud break) (Concord grape vines [2]; 13 DAT, listed as Thidiazuron (1,000)): 77.8%
- % bud break (vines with at least one bud break) (Concord grape vines [2]; 15 DAT): 0.0%
- % bud break (vines with at least one bud break) (Concord grape vines [2]; 15 DAT, listed as Thidiazuron (1,000)): 88.9%
- % bud break (vines with at least one bud break) (Concord grape vines [2]; 17 DAT): 11.1%
- % bud break (vines with at least one bud break) (Concord grape vines [2]; 17 DAT, listed as Thidiazuron (1,000)): 88.9%
- % bud break (vines with at least one bud break) (Concord grape vines [2]; 20 DAT): 11.1%
- % bud break (vines with at least one bud break) (Concord grape vines [2]; 20 DAT, listed as Thidiazuron (1,000)): 100.0%
- % bud break (vines with at least one bud break) (Concord grape vines [2]; 22 DAT): 22.2%
- % bud break (vines with at least one bud break) (Concord grape vines [2]; 22 DAT, listed as Thidiazuron (1,000)): 100.0%
- % bud break (vines with at least one bud break) (Concord grape vines [2]; 24 DAT): 33.3%
- % bud break (vines with at least one bud break) (Concord grape vines [2]; 24 DAT, listed as Thidiazuron (1,000)): 100.0%
- % bud break (vines with at least one bud break) (Concord grape vines [2]; 27 DAT): 33.3%
- % bud break (vines with at least one bud break) (Concord grape vines [2]; 27 DAT, listed as Thidiazuron (1,000 ppm)): 100.0%
- % bud break (vines with at least one bud break) (Concord grape vines [2]; 29 DAT): 33.3%
- % bud break (vines with at least one bud break) (Concord grape vines [2]; 29 DAT, listed as Thidiazuron (1,000 ppm)): 100.0%
- % bud break (vines with at least one bud break) (Concord grape vines [2]; 31 DAT): 33.3%
- % bud break (vines with at least one bud break) (Concord grape vines [2]; 31 DAT, listed as Thidiazuron (1,000 ppm)): 100.0%
- % bud break (vines with at least one bud break) (Concord grape vines [2]; 34 DAT): 33.3%
- % bud break (vines with at least one bud break) (Concord grape vines [2]; 34 DAT, listed as Thidiazuron (1,000 ppm)): 100.0%
- % bud break (vines with at least one bud break) (Concord grape vines [2]; 36 DAT): 44.4%
- % bud break (vines with at least one bud break) (Concord grape vines [2]; 36 DAT, listed as Thidiazuron (1,000 ppm)): 100.0%
- % bud break (vines with at least one bud break) (Concord grape vines [2]; 38 DAT): 55.6%
- % bud break (vines with at least one bud break) (Concord grape vines [2]; 38 DAT, listed as Thidiazuron (1,000 ppm)): 100.0%
- % bud break (vines with at least one bud break) (Concord grape vines [2]; 41 DAT): 55.6%
- % bud break (vines with at least one bud break) (Concord grape vines [2]; 41 DAT, listed as Thidiazuron (1,000 ppm)): 100.0%
- % bud break (vines with at least one bud break) (Concord grape vines [2]; 43 DAT): 66.7%
- % bud break (vines with at least one bud break) (Concord grape vines [2]; 43 DAT, listed as Thidiazuron (1,000 ppm)): 100.0%
- % bud break (vines with at least one bud break) (Concord grape vines [2]; 49 DAT): 77.8%
- % bud break (vines with at least one bud break) (Concord grape vines [2]; 49 DAT, listed as Thidiazuron (1,000 ppm)): 100.0%
- Total # of Flower Clusters (Concord grape vines [2]; 49 days post treatment, thidiazuron ppm as in label, other concentrations as in Table 1): 0.1
- Combined Shoot Dry Weight (Concord grape vines [2]; [5]): 1.5 g
- Combined Shoot Fresh Weight (Concord grape vines [2]; [5]): 8.2 g
- Longest Shoot Length (Concord grape vines [2]; [5]): 20.1 cm
- Total Shoot Length (Concord grape vines [2]; [5]): 28.3 cm
- Combined Shoot Dry Weight (Concord grape vines [2]; [6]): 6.9 g
- Combined Shoot Fresh Weight (Concord grape vines [2]; [6]): 31.8 g
- Longest Shoot Length (Concord grape vines [2]; [6]): 68.3 cm
- Total Shoot Length (Concord grape vines [2]; [6]): 88.8 cm
- Dry Weight (g)/25% Bud Break to Harvest (d) (Concord grape vines [2]; listed as Thidiazuron (300)): 0.06 g/day
- Dry Weight (g)/25% Bud Break to Harvest (d) (Concord grape vines [2]; listed as Thidiazuron (1000)): 0.17 g/day
- Dry Weight (g)/50% Bud Break to Harvest (d) (Concord grape vines [2]; listed as Thidiazuron (300)): 0.13 g/day
- Dry Weight (g)/50% Bud Break to Harvest (d) (Concord grape vines [2]; listed as Thidiazuron (1000)): 0.18 g/day
- Fresh Weight (g)/50% Bud Break to Harvest (d) (Concord grape vines [2]; listed as Thidiazuron (300)): 0.68 g/day
- Fresh Weight (g)/50% Bud Break to Harvest (d) (Concord grape vines [2]; listed as Thidiazuron (1000)): 0.84 g/day
- 50% Bud Break to Harvest (Concord grape vines [2]; other concentrations as in Table 1, listed as Thidiazuron (300)): 12 days
- 50% Bud Break to Harvest (Concord grape vines [2]; [7]): 38 days
- 50% Bud Break to Harvest (Concord grape vines [2]; other concentrations as in Table 1, listed as thidiazuron): 12 days
- Initial to 50% Bud Break (Concord grape vines [2]; [8]): 21 days
- Initial to 50% Bud Break (Concord grape vines [2]; [9]): 3 days
- Initial to 50% Bud Break (Concord grape vines [2]; [7]): 3 days
- 25% Bud Break (DAT) (Concord grape vines [2]; [8]): 23 DAT
- 25% Bud Break (DAT) (Concord grape vines [2]; [7]): 9 DAT
- 50% Bud Break (DAT) (Concord grape vines [2]; [8]): 37 DAT
- 50% Bud Break (DAT) (Concord grape vines [2]; [9]): 11 DAT
- 50% Bud Break (DAT) (Concord grape vines [2]; [7]): 11 DAT
- Fresh Shoot Weight (g)/Plant (Concord grape vines [3]; listed as Thidiazuron (100)): 15.53 g
- Fresh Shoot Weight (g)/Plant (Concord grape vines [3]; listed as Thidiazuron (300)): 13.15 g
- Fresh Shoot Weight (g)/Plant (Concord grape vines [3]; listed as Thidiazuron (1000)): 22.45 g
- 50% Bud Break (DAT) (Concord grape vines [3]; listed as Thidiazuron (100)): 33 DAT
- 100% Bud Break (DAT) (Concord grape vines [3]; listed as Thidiazuron (100)): 44 DAT
- Initial to 50% Bud Break (Concord grape vines [3]; listed as Thidiazuron (100)): 7
- Number of Buds Broken/Plant (Concord grape vines [3]; listed as Thidiazuron (100)): 2
- 50% Bud Break (DAT) (Concord grape vines [3]; listed as Thidiazuron (300)): 28 DAT
- 100% Bud Break (DAT) (Concord grape vines [3]; listed as Thidiazuron (300)): 48 DAT
- Initial to 50% Bud Break (Concord grape vines [3]; listed as Thidiazuron (300)): 14
- Number of Buds Broken/Plant (Concord grape vines [3]; listed as Thidiazuron (300)): 2.125
- 50% Bud Break (DAT) (Concord grape vines [3]; listed as Thidiazuron (1000)): 21 DAT
- 100% Bud Break (DAT) (Concord grape vines [3]; listed as Thidiazuron (1000)): 37 DAT
- Initial to 50% Bud Break (Concord grape vines [3]; listed as Thidiazuron (1000)): 7
- Number of Buds Broken/Plant (Concord grape vines [3]; listed as Thidiazuron (1000)): 4.5
